Experimental data reported in paper PMC3360746, “CD36 Inhibitors Reduce Postprandial Hypertriglyceridemia and Protect against Diabetic Dyslipidemia and Atherosclerosis” (PLoS ONE, 2012).

Target: T1, CD36 (Homo sapiens, UniProt P16671)
T1 construct: full length human CD36 stably expressed in HEK 293 cells
Assay: inhibition of Cy3-ox-LDL binding to HEK-CD36 cells at […]°C; affinity cross-linking of ox-LDL to CD36
Assay type: cell-based

T1 sequence (P16671 2-472): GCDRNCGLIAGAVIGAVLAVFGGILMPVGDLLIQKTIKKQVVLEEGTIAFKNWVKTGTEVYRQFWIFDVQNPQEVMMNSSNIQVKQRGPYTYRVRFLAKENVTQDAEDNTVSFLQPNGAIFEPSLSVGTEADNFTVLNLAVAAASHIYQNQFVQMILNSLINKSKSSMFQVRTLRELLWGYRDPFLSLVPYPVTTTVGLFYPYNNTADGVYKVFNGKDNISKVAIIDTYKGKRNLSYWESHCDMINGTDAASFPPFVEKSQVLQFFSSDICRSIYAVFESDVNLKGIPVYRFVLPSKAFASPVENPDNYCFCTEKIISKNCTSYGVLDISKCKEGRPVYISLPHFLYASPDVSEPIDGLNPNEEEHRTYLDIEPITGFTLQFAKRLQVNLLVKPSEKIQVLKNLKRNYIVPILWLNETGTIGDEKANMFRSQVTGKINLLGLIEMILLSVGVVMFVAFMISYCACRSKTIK

Row | SMILES | IC50 [nM]
1 | COc1cc(O)c(/C=N/NC(=O)c2ccc3nccn3c2)c(OC)c1 [AP5258] | 5000 ± 1000
2 | COc1cc(O)c(/C=N/NC(=O)c2cc3ccccc3s2)c(OC)c1 [AP5055] | 1000 ± 100
